Each structure is given as a SMILES string. Where a name gives a salt, the structure may show the parent alone.

Chain of TRKA (P04629 441-796): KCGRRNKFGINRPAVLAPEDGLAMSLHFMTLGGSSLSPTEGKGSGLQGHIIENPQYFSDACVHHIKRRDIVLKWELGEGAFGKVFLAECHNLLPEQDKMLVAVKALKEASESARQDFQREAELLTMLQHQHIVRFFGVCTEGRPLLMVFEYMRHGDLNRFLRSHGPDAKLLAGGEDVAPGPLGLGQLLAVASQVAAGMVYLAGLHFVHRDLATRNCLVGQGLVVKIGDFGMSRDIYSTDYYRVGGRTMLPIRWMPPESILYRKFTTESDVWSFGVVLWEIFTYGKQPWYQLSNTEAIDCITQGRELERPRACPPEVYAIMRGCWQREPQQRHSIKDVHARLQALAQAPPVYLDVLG

This experiment has as its target TRKA (Homo sapiens (Human), UniProt P04629). As to the kind of experiment: Isolated TRK enzyme assay (HTRF KinEASE-TK), TRKA. Format: biochemical. As to conditions: read-out: Trka enzyme (IC50).
With `CC(C)n1cc(C(=O)c2cncc(NC(=O)Cc3ccc(C(F)(F)F)cc3)c2)c2cnc(N)nc21` [Example 244, N-{5-[(2-amino-7-isopropyl-7H-pyrrolo[2,3-d]pyrimidin-5-yl)carbonyl]pyridin-3-yl}-2-[4-(trifluoromethyl)phenyl]acetamide], the IC50 was 4.69 nM.
Take `CC(C)n1cc(C(=O)c2cncc(NC(=O)Cc3cccc(C(F)(F)F)c3)c2)c2cnc(N)nc21` [Example 245, N-{5-[(2-amino-7-isopropyl-7H-pyrrolo[2,3-d]pyrimidin-5-yl)carbonyl]pyridin-3-yl}-2-[3-(trifluoromethyl)phenyl]acetamide]: the half-inhibitory concentration (IC50) was 4.7 nM.
In the case of `CC(C)n1cc(C(=O)c2cncc(NC(=O)Cc3ccc4ocnc4c3)c2)c2cnc(N)nc21` [Example 246, N-{5-[(2-amino-7-isopropyl-7H-pyrrolo[2,3-d]pyrimidin-5-yl)carbonyl]pyridin-3-yl}-2-(1,3-benzoxazol-5-yl)acetamide], the IC50 worked out at 35.6 nM.
Turning to `CC(C)n1cc(C(=O)c2cncc(NC(=O)Cc3cccc(S(C)(=O)=O)c3)c2)c2cnc(N)nc21` [Example 247, N-{5-[(2-amino-7-isopropyl-7H-pyrrolo[2,3-d]pyrimidin-5-yl)carbonyl]pyridin-3-yl}-2-[3-(methylsulfonyl)phenyl]acetamide], the 50% inhibitory concentration (IC50) worked out at 71 nM.
`CC(C)c1cn(CC(=O)Nc2cncc(C(=O)c3cn(C(C)C)c4nc(N)ncc34)c2)nn1` [Example 248, N-{5-[(2-amino-7-isopropyl-7H-pyrrolo[2,3-d]pyrimidin-5-yl)carbonyl]pyridin-3-yl}-2-(4-isopropyl-1H-1,2,3-triazol-1-yl)acetamide]: the half-inhibitory concentration (IC50) came to 23.7 nM.
Consider `CC(C)n1cc(C(=O)c2cncc(NC(=O)Cn3cc(C4CC4)nn3)c2)c2cnc(N)nc21` [Example 249, N-{5-[(2-amino-7-isopropyl-7H-pyrrolo[2,3-d]pyrimidin-5-yl)carbonyl]pyridin-3-yl}-2-(4-cyclopropyl-1H-1,2,3-triazol-1-yl)acetamide], for which the IC50 amounted to 35.8 nM.
On to `CC(C)n1cc(C(=O)c2cncc(NC(=O)Cc3ccc(Cl)cc3)c2)c2cnc(N)nc21` [Example 250, N-{5-[(2-amino-7-isopropyl-7H-pyrrolo[2,3-d]pyrimidin-5-yl)carbonyl]pyridin-3-yl}-2-(4-chlorophenyl)acetamide], for which the concentration for half-maximal inhibition (IC50) came to 3.48 nM.
As to `CC(C)n1ncc(CC(=O)Nc2cncc(C(=O)c3cn(C(C)C)c4nc(N)ncc34)c2)c1C(F)(F)F` [Example 251, N-{5-[(2-amino-7-isopropyl-7H-pyrrolo[2,3-d]pyrimidin-5-yl)carbonyl]pyridin-3-yl}-2-[1-isopropyl-5-(trifluoromethyl)-1H-pyrazol-4-yl]acetamide], the IC50 amounted to 33.1 nM.
For `CC(C)n1cc(C(=O)c2cncc(NC(=O)Cn3ccc(C(F)(F)F)n3)c2)c2cnc(N)nc21` [Example 252, N-{5-[(2-amino-7-isopropyl-7H-pyrrolo[2,3-d]pyrimidin-5-yl)carbonyl]pyridin-3-yl}-2-[3-(trifluoromethyl)-1H-pyrazol-1-yl]acetamide], the IC50 was found to be 5.18 nM.
Consider `CC(C)n1cc(C(=O)c2cncc(NC(=O)Cn3ccc(C4CC4)n3)c2)c2cnc(N)nc21` [Example 253, N-{5-[(2-amino-7-isopropyl-7H-pyrrolo[2,3-d]pyrimidin-5-yl)carbonyl]pyridin-3-yl}-2-(3-cyclopropyl-1H-pyrazol-1-yl)acetamide], for which the concentration for half-maximal inhibition (IC50) came to 3.92 nM.
On to `CC(C)n1cc(CC(=O)Nc2cncc(C(=O)c3cn(C(C)C)c4nc(N)ncc34)c2)c(C(F)(F)F)n1` [Example 254, N-{5-[(2-amino-7-isopropyl-7H-pyrrolo[2,3-d]pyrimidin-5-yl)carbonyl]pyridin-3-yl}-2-[1-isopropyl-3-(trifluoromethyl)-1H-pyrazol-4-yl]acetamide], for which the IC50 came to 52.6 nM.
The figure for `CC(C)n1cc(C(=O)c2cncc(NC(=O)Cc3ccc(C#N)cn3)c2)c2cnc(N)nc21` [Example 255, N-{5-[(2-amino-7-isopropyl-7H-pyrrolo[2,3-d]pyrimidin-5-yl)carbonyl]pyridin-3-yl}-2-(5-cyanopyridin-2-yl)acetamide] is 42.7 nM; for `CC(C)(CO)n1cc(C(=O)c2cncc(NC(=O)Cc3cccc(C(F)(F)F)c3)c2)c2cnc(N)nc21` [Example 256, N-(5-{[2-amino-7-(2-hydroxy-1,1-dimethylethyl)-7H-pyrrolo[2,3-d]pyrimidin-5-yl]carbonyl}pyridin-3-yl)-2-[3-(trifluoromethyl)phenyl]acetamide] it is 1.09 nM.
Regarding `CC(C)(CO)n1cc(C(=O)c2cncc(NC(=O)Cc3ccc4ocnc4c3)c2)c2cnc(N)nc21` [Example 257, N-(5-{[2-amino-7-(2-hydroxy-1,1-dimethylethyl)-7H-pyrrolo[2,3-d]pyrimidin-5-yl]carbonyl}pyridin-3-yl)-2-(1,3-benzoxazol-5-yl)acetamide], the half-inhibitory concentration (IC50) turned out to be 12.2 nM.
For the molecule `CC(C)(CO)n1cc(C(=O)c2cncc(NC(=O)Cc3cccc(S(C)(=O)=O)c3)c2)c2cnc(N)nc21` [Example 258, N-(5-{[2-amino-7-(2-hydroxy-1,1-dimethylethyl)-7H-pyrrolo[2,3-d]pyrimidin-5-yl]carbonyl}pyridin-3-yl)-2-[3-(methylsulfonyl)phenyl]acetamide], the 50% inhibitory concentration (IC50) amounted to 11.8 nM.
For `CC(C)(CO)n1cc(C(=O)c2cncc(NC(=O)Cc3ccc(C#N)cc3)c2)c2cnc(N)nc21` [Example 259, N-(5-{[2-amino-7-(2-hydroxy-1,1-dimethylethyl)-7H-pyrrolo[2,3-d]pyrimidin-5-yl]carbonyl}pyridin-3-yl)-2-(4-cyanophenyl)acetamide], the IC50 was 8.62 nM.
As to `CC(C)n1ncc(CC(=O)Nc2cncc(C(=O)c3cn(C(C)(C)CO)c4nc(N)ncc34)c2)c1C(F)(F)F` [Example 260, N-(5-{[2-amino-7-(2-hydroxy-1,1-dimethylethyl)-7H-pyrrolo[2,3-d]pyrimidin-5-yl]carbonyl}pyridin-3-yl)-2-[1-isopropyl-5-(trifluoromethyl)-1H-pyrazol-4-yl]acetamide], the IC50 came out at 16.8 nM.
The figure for `CC(CO)(CO)n1cc(C(=O)c2cncc(NC(=O)Cc3ccc(C#N)c(C(F)(F)F)c3)c2)c2cncnc21` [Example 261] is 128 nM.
For the molecule `CC(CO)(CO)n1cc(C(=O)c2cncc(NC(=O)Cc3ccc(F)c(C(F)(F)F)c3)c2)c2cncnc21` [Example 263, N-(5-(7-(1,3-dihydroxy-2-methylpropan-2-yl)-7H-pyrrolo[2,3-d]pyrimidine-5-carbonyl)pyridin-3-yl)-2-(4-fluoro-3-(trifluoromethyl)phenyl)acetamide], the concentration for half-maximal inhibition (IC50) worked out at 73.6 nM.
For the molecule `CC(CO)(CO)n1cc(C(=O)c2cncc(NC(=O)c3cccc(C(F)(F)F)c3)c2)c2cncnc21` [Example 264, N-(5-(7-(1,3-dihydroxy-2-methylpropan-2-yl)-7H-pyrrolo[2,3-d]pyrimidine-5-carbonyl)pyridin-3-yl)-3-(trifluoromethyl)benzamide], the IC50 came to 84.8 nM.
Turning to `CC(CO)(CO)n1cc(C(=O)c2cncc(NC(=O)c3ccc(C(F)(F)F)c(F)c3)c2)c2cncnc21` [Example 265, N-(5-(7-(1,3-dihydroxy-2-methylpropan-2-yl)-7H-pyrrolo[2,3-d]pyrimidine-5-carbonyl)pyridin-3-yl)-3-fluoro-4-(trifluoromethyl)benzamide], the concentration for half-maximal inhibition (IC50) came out at 69 nM.
Consider `CC(C)n1cc(C(=O)c2cncc(NC(=O)Cc3cccc(CN4CCC4)c3)c2)c2cncnc21` [Example 266, 2-[3-(azetidin-1-ylmethyl)phenyl]-N-{5-[(7-isopropyl-7H-pyrrolo[2,3-d]pyrimidin-5-yl)carbonyl]pyridin-3-yl}acetamide formate salt], for which the concentration for half-maximal inhibition (IC50) came out at 2950 nM.
Turning to `CC(C)n1cc(C(=O)c2cncc(NC(=O)Cc3cccc(CN4CC(F)C4)c3)c2)c2cncnc21` [Example 267, 2-{3-[(3-fluoroazetidin-1-yl)methyl]phenyl}-N-{5-[(7-isopropyl-7H-pyrrolo[2,3-d]pyrimidin-5-yl)carbonyl]pyridin-3-yl}acetamide], the 50% inhibitory concentration (IC50) came to 2120 nM.
Take `CC(C)n1cc(C(=O)c2cncc(NC(=O)Cc3cccc(CN4CCOCC4)c3)c2)c2cncnc21` [Example 268, N-{5-[(7-isopropyl-7H-pyrrolo[2,3-d]pyrimidin-5-yl)carbonyl]pyridin-3-yl}-2-[3-(morpholin-4-ylmethyl)phenyl]acetamide formate salt]: the IC50 was determined as 579 nM.
In the case of `O=C(Nc1cncc(C(=O)c2cn(C(CO)CO)c3ncncc23)c1)c1cccc(C(F)(F)F)c1` [Example 269, N-(5-(7-(1,3-dihydroxypropan-2-yl)-7H-pyrrolo[2,3-d]pyrimidine-5-carbonyl)pyridin-3-yl)-3-(trifluoromethyl)benzamide], the IC50 is 557 nM.
Take `O=C(Cc1ccc(Cl)cc1)Nc1cncc(C(=O)c2cn(C(CO)CO)c3ncncc23)c1` [Example 270, 2-(4-chlorophenyl)-N-(5-(7-(1,3-dihydroxypropan-2-yl)-7H-pyrrolo[2,3-d]pyrimidine-5-carbonyl)pyridin-3-yl)acetamide]: the IC50 came out at 343 nM.
`O=C(Nc1cncc(C(=O)c2cn(C(CO)CO)c3ncncc23)c1)c1cccc(OC(F)(F)F)c1` [Example 271, N-(5-(7-(1,3-dihydroxypropan-2-yl)-7H-pyrrolo[2,3-d]pyrimidine-5-carbonyl)pyridin-3-yl)-3-(trifluoromethoxy)benzamide]: the IC50 came to 39 nM.
The figure for `O=C(Cc1ccc2cccnc2c1)Nc1cncc(C(=O)c2cn(C(CO)CO)c3ncncc23)c1` [Example 272, N-(5-(7-(1,3-dihydroxypropan-2-yl)-7H-pyrrolo[2,3-d]pyrimidine-5-carbonyl)pyridin-3-yl)-2-(quinolin-7-yl)acetamide] is 697 nM; for `O=C(Cc1ccc(C(F)(F)F)cc1)Nc1cncc(C(=O)c2cn(C(CO)CO)c3ncncc23)c1` [Example 273, N-(5-(7-(1,3-dihydroxypropan-2-yl)-7H-pyrrolo[2,3-d]pyrimidine-5-carbonyl)pyridin-3-yl)-2-(4-(trifluoromethyl)phenyl)acetamide] it is 342 nM; for `O=C(Cc1cccc(C(F)(F)F)c1)Nc1cncc(C(=O)c2cn(C(CO)CO)c3ncncc23)c1` [Example 274, N-(5-(7-(1,3-dihydroxypropan-2-yl)-7H-pyrrolo[2,3-d]pyrimidine-5-carbonyl)pyridin-3-yl)-2-(3-(trifluoromethyl)phenyl)acetamide] it is 38.6 nM.

Values taken from US8846698B2, “Pyrrolo[2,3-d]pyrimidine tropomysin-related kinase inhibitors” (Pfizer Limited, priority 2011, dated 2014).
